pEC50: −log10 of the molar value.
How the values were obtained:
[1] = molecular target: Toll-like receptor 1/2 (Mus musculus); test: Agonist activity at TLR2/TLR1 in mouse Macrophage cell line
Toll-like receptor 1/2 = Toll-like receptor 1/2 (Homo sapiens, UniProt O60603+Q15399); test: Agonist activity at TLR2/TLR1 in human THP-1 cells; type: cell-based
Sequence of Toll-like receptor 1/2 (O60603 whole entry): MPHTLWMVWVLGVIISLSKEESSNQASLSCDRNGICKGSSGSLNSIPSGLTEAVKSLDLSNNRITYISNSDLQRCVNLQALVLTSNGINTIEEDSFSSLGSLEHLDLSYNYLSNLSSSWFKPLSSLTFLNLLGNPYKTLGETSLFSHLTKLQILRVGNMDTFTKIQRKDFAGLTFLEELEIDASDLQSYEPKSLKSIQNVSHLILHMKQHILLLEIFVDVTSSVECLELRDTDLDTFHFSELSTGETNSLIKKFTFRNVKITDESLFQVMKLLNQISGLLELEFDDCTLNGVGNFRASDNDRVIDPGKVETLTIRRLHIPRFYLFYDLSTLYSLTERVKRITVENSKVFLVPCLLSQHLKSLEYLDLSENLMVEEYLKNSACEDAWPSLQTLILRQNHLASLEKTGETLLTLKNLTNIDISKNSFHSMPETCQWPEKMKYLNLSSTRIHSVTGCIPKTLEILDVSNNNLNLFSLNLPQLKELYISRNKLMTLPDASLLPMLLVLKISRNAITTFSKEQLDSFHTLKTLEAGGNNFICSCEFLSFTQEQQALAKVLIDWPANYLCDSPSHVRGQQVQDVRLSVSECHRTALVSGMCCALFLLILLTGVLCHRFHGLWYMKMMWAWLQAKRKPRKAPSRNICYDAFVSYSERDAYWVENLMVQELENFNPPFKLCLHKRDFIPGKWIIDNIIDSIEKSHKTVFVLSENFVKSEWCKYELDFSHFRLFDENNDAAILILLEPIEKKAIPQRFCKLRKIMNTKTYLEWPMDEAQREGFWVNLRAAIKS
Sequence of Toll-like receptor 1/2 (Q15399 whole entry): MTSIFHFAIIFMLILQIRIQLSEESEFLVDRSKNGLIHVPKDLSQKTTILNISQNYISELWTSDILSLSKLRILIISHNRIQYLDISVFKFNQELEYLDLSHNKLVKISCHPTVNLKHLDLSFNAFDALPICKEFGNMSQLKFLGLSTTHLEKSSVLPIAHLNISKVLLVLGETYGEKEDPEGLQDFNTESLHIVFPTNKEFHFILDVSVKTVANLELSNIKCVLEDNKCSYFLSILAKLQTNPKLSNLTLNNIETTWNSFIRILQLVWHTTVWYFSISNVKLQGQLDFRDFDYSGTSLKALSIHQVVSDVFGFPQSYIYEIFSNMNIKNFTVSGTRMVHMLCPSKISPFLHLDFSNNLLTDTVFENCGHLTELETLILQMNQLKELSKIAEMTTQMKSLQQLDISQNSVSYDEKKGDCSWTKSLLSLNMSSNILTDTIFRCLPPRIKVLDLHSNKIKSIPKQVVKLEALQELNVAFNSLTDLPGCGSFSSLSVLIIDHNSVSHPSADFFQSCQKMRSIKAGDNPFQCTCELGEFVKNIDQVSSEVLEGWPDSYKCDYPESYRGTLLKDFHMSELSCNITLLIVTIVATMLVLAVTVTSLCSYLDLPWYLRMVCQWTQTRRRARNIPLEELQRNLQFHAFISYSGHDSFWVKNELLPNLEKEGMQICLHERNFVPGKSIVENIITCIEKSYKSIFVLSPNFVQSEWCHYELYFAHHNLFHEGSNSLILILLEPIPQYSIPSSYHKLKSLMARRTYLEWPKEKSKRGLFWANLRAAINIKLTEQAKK

Row | pEC50 [1] | pEC50 (Toll-like receptor 1/2) | Structure (SMILES)
1 | < 5.30 | < 5.30 | O=C(N[C@H]1C[C@@H]1c1ccccc1)[C@@H]1CN(C(=O)Cc2cccc(CC(=O)N3C[C@@H](C(=O)N[C@H]4C[C@@H]4c4ccccc4)[C@H](C(=O)N[C@H]4C[C@@H]4c4ccccc4)C3)c2)C[C@H]1C(=O)N[C@H]1C[C@@H]1c1ccccc1
2 | 6.60 | 7.52 | COc1cc(C(=O)N2C[C@@H](C(=O)N[C@H]3C[C@@H]3c3ccccc3)[C@H](C(=O)N[C@H]3C[C@@H]3c3ccccc3)C2)ccc1C(=O)N1C[C@@H](C(=O)N[C@H]2C[C@@H]2c2ccccc2)[C@H](C(=O)N[C@H]2C[C@@H]2c2ccccc2)C1
3 | 7.52 | 8.70 | CCCCNC(=O)[C@@H]1CN(C(=O)c2ccc(C(=O)N3C[C@@H](C(=O)N[C@H]4C[C@@H]4c4ccccc4)[C@H](C(=O)N[C@@H]4C[C@H]4c4ccccc4)C3)cc2)C[C@H]1C(=O)N[C@H]1C[C@@H]1c1ccccc1
4 | < 5.30 | 6.89 | O=C(N[C@H]1C[C@@H]1c1ccccc1)[C@@H]1CN(C(=O)Cc2cnc(CC(=O)N3C[C@@H](C(=O)N[C@H]4C[C@@H]4c4ccccc4)[C@H](C(=O)N[C@H]4C[C@@H]4c4ccccc4)C3)cn2)C[C@H]1C(=O)N[C@H]1C[C@@H]1c1ccccc1
5 | < 5.30 | 6.07 | O=C(N[C@H]1C[C@@H]1c1ccccc1)[C@@H]1CN(C(=O)c2cc(Br)c(C(=O)N3C[C@@H](C(=O)N[C@H]4C[C@@H]4c4ccccc4)[C@H](C(=O)N[C@H]4C[C@@H]4c4ccccc4)C3)cc2Br)C[C@H]1C(=O)N[C@H]1C[C@@H]1c1ccccc1
6 | 6.42 | 8.70 | O=C(N[C@H]1C[C@@H]1c1ccccc1)[C@@H]1CN(C(=O)c2ccc3cc(C(=O)N4C[C@@H](C(=O)N[C@H]5C[C@@H]5c5ccccc5)[C@H](C(=O)N[C@H]5C[C@@H]5c5ccccc5)C4)ccc3c2)C[C@H]1C(=O)N[C@H]1C[C@@H]1c1ccccc1
7 | 6.44 | 7.30 | CCCCCCNC(=O)[C@@H]1CN(C(=O)c2ccc(C(=O)N3C[C@@H](C(=O)N[C@H]4C[C@@H]4c4ccccc4)[C@H](C(=O)N[C@@H]4C[C@H]4c4ccccc4)C3)cc2)C[C@H]1C(=O)NCCCCCC
8 | 6.00 | 9.00 | CCCCCCCCNC(=O)[C@@H]1CN(C(=O)c2ccc(C(=O)N3C[C@@H](C(=O)N[C@H]4C[C@@H]4c4ccccc4)[C@H](C(=O)N[C@@H]4C[C@H]4c4ccccc4)C3)cc2)C[C@H]1C(=O)NCCCCCCCC
9 | < 5.30 | < 5.30 | O=C(NCCc1ccc(F)cc1)[C@@H]1CN(C(=O)COCC(=O)N2C[C@@H](C(=O)NCCc3ccc(F)cc3)[C@H](C(=O)NCCc3ccc(F)cc3)C2)C[C@H]1C(=O)NCCc1ccc(F)cc1
10 | < 8.30 | < 8.30 | CCCCCCCCCCCCNC(=O)[C@@H]1CN(C(=O)c2ccc(C(=O)N3C[C@@H](C(=O)NCCCCCCCCCCCC)[C@H](C(=O)NCCCCCCCCCCCC)C3)cc2)C[C@H]1C(=O)NCCCCCCCCCCCC
11 | < 5.30 | < 5.30 | O=C(N[C@H]1C[C@@H]1c1ccccc1)[C@@H]1CN(C(=O)c2ccc(C(=O)N3C[C@@H](C(=O)N[C@H]4C[C@@H]4c4ccccc4)[C@H](C(=O)N[C@H]4C[C@@H]4c4ccccc4)C3)c(Br)c2)C[C@H]1C(=O)N[C@H]1C[C@@H]1c1ccccc1
12 | < 5.30 | < 5.30 | O=C(N[C@H]1C[C@@H]1c1ccccc1)[C@@H]1CN(C(=O)[C@H]2CC[C@@H](C(=O)N3C[C@@H](C(=O)N[C@H]4C[C@@H]4c4ccccc4)[C@H](C(=O)N[C@H]4C[C@@H]4c4ccccc4)C3)CC2)C[C@H]1C(=O)N[C@H]1C[C@@H]1c1ccccc1
13 | < 5.30 | < 5.30 | O=C(NCCc1ccc(F)cc1)[C@@H]1CN(C(=O)C/C=C/CC(=O)N2C[C@@H](C(=O)NCCc3ccc(F)cc3)[C@H](C(=O)NCCc3ccc(F)cc3)C2)C[C@H]1C(=O)NCCc1ccc(F)cc1
14 | < 5.30 | < 5.30 | O=C(N[C@H]1C[C@@H]1c1ccccc1)[C@@H]1CN(C(=O)C/C=C/CC(=O)N2C[C@@H](C(=O)N[C@H]3C[C@@H]3c3ccccc3)[C@H](C(=O)N[C@H]3C[C@@H]3c3ccccc3)C2)C[C@H]1C(=O)N[C@H]1C[C@@H]1c1ccccc1
15 | 6.15 | 8.46 | CCCCCCCCNC(=O)[C@@H]1CN(C(=O)c2ccc(C(=O)N3C[C@@H](C(=O)NCCCCCCCC)[C@H](C(=O)N[C@@H]4C[C@H]4c4ccccc4)C3)cc2)C[C@H]1C(=O)N[C@@H]1C[C@H]1c1ccccc1
16 | < 5.30 | 6.89 | O=C(NCCc1ccc(F)cc1)[C@@H]1CN(C(=O)c2ccc(C(=O)N3C[C@@H](C(=O)NCCc4ccc(F)cc4)[C@H](C(=O)NCCc4ccc(F)cc4)C3)c(O)c2)C[C@H]1C(=O)NCCc1ccc(F)cc1
17 | 8.00 | 9.77 | CCCCCCCCCCCCCCNC(=O)[C@@H]1CN(C(=O)c2ccc(C(=O)N3C[C@@H](C(=O)N[C@H]4C[C@@H]4c4ccccc4)[C@H](C(=O)N[C@@H]4C[C@H]4c4ccccc4)C3)cc2)C[C@H]1C(=O)NCCCCCCCCCCCCCC
18 | < 5.30 | < 5.30 | O=C(NCCc1ccc(F)cc1)[C@@H]1CN(C(=O)C#CC(=O)N2C[C@@H](C(=O)NCCc3ccc(F)cc3)[C@H](C(=O)NCCc3ccc(F)cc3)C2)C[C@H]1C(=O)NCCc1ccc(F)cc1

Row | pEC50 [1] | pEC50 (Toll-like receptor 1/2) | Structure (SMILES)
19 | < 5.30 | < 5.30 | O=C(O)[C@@H]1CN(C(=O)c2ccc(C(=O)N3C[C@@H](C(=O)O)[C@H](C(=O)N[C@@H]4C[C@H]4c4ccccc4)C3)cc2)C[C@H]1C(=O)N[C@@H]1C[C@H]1c1ccccc1
20 | < 5.30 | < 5.30 | O=C(N[C@H]1C[C@@H]1c1ccccc1)[C@@H]1CN(C(=O)[C@H]2CC[C@H](C(=O)N3C[C@@H](C(=O)N[C@H]4C[C@@H]4c4ccccc4)[C@H](C(=O)N[C@H]4C[C@@H]4c4ccccc4)C3)CC2)C[C@H]1C(=O)N[C@H]1C[C@@H]1c1ccccc1
21 | 6.44 | 7.77 | CCCNC(=O)[C@@H]1CN(C(=O)c2ccc(C(=O)N3C[C@@H](C(=O)N[C@H]4C[C@@H]4c4ccccc4)[C@H](C(=O)N[C@@H]4C[C@H]4c4ccccc4)C3)cc2)C[C@H]1C(=O)N[C@H]1C[C@@H]1c1ccccc1
22 | < 8.30 | < 8.30 | CCCCNC(=O)[C@@H]1CN(C(=O)c2ccc(C(=O)N3C[C@@H](C(=O)NCCCC)[C@H](C(=O)NCCCC)C3)cc2)C[C@H]1C(=O)NCCCC
23 | < 5.30 | < 5.30 | O=C(N[C@H]1C[C@@H]1c1ccccc1)[C@@H]1CN(C(=O)c2cccc(C(=O)N3C[C@@H](C(=O)N[C@H]4C[C@@H]4c4ccccc4)[C@H](C(=O)N[C@H]4C[C@@H]4c4ccccc4)C3)c2)C[C@H]1C(=O)N[C@H]1C[C@@H]1c1ccccc1
24 | 8.96 | 10.10 | CCCCCCCCCCCCCCNC(=O)[C@@H]1CN(C(=O)c2ccc(C(=O)N3C[C@@H](C(=O)N[C@H]4C[C@@H]4c4ccccc4)[C@H](C(=O)N[C@@H]4C[C@H]4c4ccccc4)C3)cc2)C[C@H]1C(=O)N[C@H]1C[C@@H]1c1ccccc1
25 | 5.96 | 9.10 | CCCCCCNC(=O)[C@@H]1CN(C(=O)c2ccc(C(=O)N3C[C@@H](C(=O)NCCCCCC)[C@H](C(=O)N[C@@H]4C[C@H]4c4ccccc4)C3)cc2)C[C@H]1C(=O)N[C@@H]1C[C@H]1c1ccccc1
26 | < 5.30 | < 5.30 | O=C(N[C@H]1C[C@@H]1c1ccccc1)[C@@H]1CN(C(=O)[C@@H]2CCC[C@H](C(=O)N3C[C@@H](C(=O)N[C@H]4C[C@@H]4c4ccccc4)[C@H](C(=O)N[C@H]4C[C@@H]4c4ccccc4)C3)C2)C[C@H]1C(=O)N[C@H]1C[C@@H]1c1ccccc1
27 | < 5.30 | 6.70 | O=C(O)[C@@H]1CN(C(=O)c2ccc(C(=O)N3C[C@@H](C(=O)N[C@H]4C[C@@H]4c4ccccc4)[C@H](C(=O)N[C@@H]4C[C@H]4c4ccccc4)C3)cc2)C[C@H]1C(=O)N[C@H]1C[C@@H]1c1ccccc1
28 | 6.19 | 10.00 | CCCCCCCCCCNC(=O)[C@@H]1CN(C(=O)c2ccc(C(=O)N3C[C@@H](C(=O)N[C@H]4C[C@@H]4c4ccccc4)[C@H](C(=O)N[C@@H]4C[C@H]4c4ccccc4)C3)cc2)C[C@H]1C(=O)N[C@H]1C[C@@H]1c1ccccc1
29 | 6.89 | 9.70 | O=C(N[C@H]1C[C@@H]1c1ccccc1)[C@@H]1CN(C(=O)/C=C/C=C/C(=O)N2C[C@@H](C(=O)N[C@H]3C[C@@H]3c3ccccc3)[C@H](C(=O)N[C@H]3C[C@@H]3c3ccccc3)C2)C[C@H]1C(=O)N[C@H]1C[C@@H]1c1ccccc1
30 | 6.57 | 8.40 | O=C(N[C@H]1C[C@@H]1c1ccccc1)[C@@H]1CN(C(=O)c2ccc(C(=O)N3C[C@@H](C(=O)N[C@H]4C[C@@H]4c4ccccc4)[C@H](C(=O)N[C@H]4C[C@@H]4c4ccccc4)C3)nc2)C[C@H]1C(=O)N[C@H]1C[C@@H]1c1ccccc1
31 | < 5.30 | < 5.30 | O=C(N[C@H]1C[C@@H]1c1ccccc1)[C@@H]1CN(C(=O)COCC(=O)N2C[C@@H](C(=O)N[C@H]3C[C@@H]3c3ccccc3)[C@H](C(=O)N[C@H]3C[C@@H]3c3ccccc3)C2)C[C@H]1C(=O)N[C@H]1C[C@@H]1c1ccccc1
32 | < 5.30 | < 5.30 | O=C(NCCc1ccc(F)cc1)[C@@H]1CN(C(=O)c2cccc(C(=O)N3C[C@@H](C(=O)NCCc4ccc(F)cc4)[C@H](C(=O)NCCc4ccc(F)cc4)C3)c2)C[C@H]1C(=O)NCCc1ccc(F)cc1
33 | 8.68 | 10.00 | CCCCCCCCCCCCNC(=O)[C@@H]1CN(C(=O)c2ccc(C(=O)N3C[C@@H](C(=O)N[C@H]4C[C@@H]4c4ccccc4)[C@H](C(=O)N[C@@H]4C[C@H]4c4ccccc4)C3)cc2)C[C@H]1C(=O)N[C@H]1C[C@@H]1c1ccccc1
34 | 8.40 | 9.74 | CCCCCCCCCCNC(=O)[C@@H]1CN(C(=O)c2ccc(C(=O)N3C[C@@H](C(=O)N[C@H]4C[C@@H]4c4ccccc4)[C@H](C(=O)N[C@@H]4C[C@H]4c4ccccc4)C3)cc2)C[C@H]1C(=O)NCCCCCCCCCC
35 | < 5.30 | < 5.30 | O=C(NCCc1ccc(F)cc1)[C@@H]1CN(C(=O)[C@@H]2CCC[C@H](C(=O)N3C[C@@H](C(=O)NCCc4ccc(F)cc4)[C@H](C(=O)NCCc4ccc(F)cc4)C3)C2)C[C@H]1C(=O)NCCc1ccc(F)cc1
36 | 8.59 | 9.30 | CCCCCCCCCCCCCCCCNC(=O)[C@@H]1CN(C(=O)c2ccc(C(=O)N3C[C@@H](C(=O)N[C@H]4C[C@@H]4c4ccccc4)[C@H](C(=O)N[C@@H]4C[C@H]4c4ccccc4)C3)cc2)C[C@H]1C(=O)N[C@H]1C[C@@H]1c1ccccc1

— ChEMBL document CHEMBL5226282, “TLR2 Agonistic Small Molecules: Detailed Structure-Activity Relationship, Applications, and Future Prospects” (J Med Chem, 2021)
